Data reported in PubChem BioAssay (NCI).
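Following 48 hours of exposure in 96-well plates, responses at five concentrations were used to interpolate endpoints linearly. The concentration for 50% growth inhibition is given as GI50. Definition used: TGI = concentration required for complete inhibition of growth.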

Experiments:
Test in all cases: NCI-60 cell line screen, 48 h
HL-60(TB) leukemia = system: HL-60(TB) leukemia
A549 NSCLC = system: A549 NSCLC
SF-295 CNS = system: SF-295 CNS
SF-539 CNS = system: SF-539 CNS
HS 578T breast = system: HS 578T breast
IGROV1 ovarian = system: IGROV1 ovarian
OVCAR-8 ovarian = system: OVCAR-8 ovarian
MALME-3M melanoma = system: MALME-3M melanoma
COLO 205 colon = system: COLO 205 colon
SK-MEL-5 melanoma = system: SK-MEL-5 melanoma
DU-145 prostate = system: DU-145 prostate
SW-620 colon = system: SW-620 colon
HOP-92 NSCLC = system: HOP-92 NSCLC
MDA-MB-435 = system: MDA-MB-435
NCI/ADR-RES ovarian = system: NCI/ADR-RES ovarian
A498 renal = system: A498 renal
NCI-H226 lung = system: NCI-H226 lung
SK-MEL-28 melanoma = system: SK-MEL-28 melanoma
UACC-62 melanoma = system: UACC-62 melanoma
MDA-MB-468 breast = system: MDA-MB-468 breast
RXF 393 renal = system: RXF 393 renal
OVCAR-5 ovarian = system: OVCAR-5 ovarian
SNB-19 CNS = system: SNB-19 CNS
SN12C renal = system: SN12C renal
KM12 colon = system: KM12 colon
SR leukemia = system: SR leukemia
HCT-15 colon = system: HCT-15 colon
SK-MEL-2 melanoma = system: SK-MEL-2 melanoma
BT-549 breast = system: BT-549 breast
LOX IMVI melanoma = system: LOX IMVI melanoma

With `O=C1Nc2cc(-c3ccc(NS(=O)(=O)c4ccc([N+](=O)[O-])cc4)cc3)ccc2/C1=C/c1ccc[nH]1` the GI50 (HL-60(TB) leukemia) was 27.6 µM, the TGI (HL-60(TB) leukemia) was greater than 100 µM and the GI50 (A549 NSCLC) was 12.1 µM. It also gave a TGI (A549 NSCLC) of 28.9 µM, a GI50 (SF-295 CNS) of 11.4 µM and a TGI (SF-295 CNS) of 41.3 µM. For the same compound, the GI50 (SF-539 CNS) was 10.9 µM, the TGI (SF-539 CNS) was 23.8 µM and the GI50 (HS 578T breast) was 22.5 µM. It also gave a TGI (HS 578T breast) greater than 100 µM, a GI50 (IGROV1 ovarian) of 19.4 µM and a TGI (IGROV1 ovarian) greater than 100 µM. For the same compound, the GI50 (OVCAR-8 ovarian) was 15.8 µM, the TGI (OVCAR-8 ovarian) was 36.2 µM and the GI50 (MALME-3M melanoma) was 15.7 µM. The TGI (MALME-3M melanoma) was 37.4 µM, the GI50 (COLO 205 colon) was 16 µM and the TGI (COLO 205 colon) was 47.9 µM. For the same compound, the GI50 (SK-MEL-5 melanoma) was 19.9 µM, the TGI (SK-MEL-5 melanoma) was 72.7 µM and the GI50 (DU-145 prostate) was 16 µM. The TGI (DU-145 prostate) was 33.6 µM, the GI50 (SW-620 colon) was 21 µM and the TGI (SW-620 colon) was 51.2 µM. The GI50 (HOP-92 NSCLC) was 14.2 µM, the TGI (HOP-92 NSCLC) was 39.6 µM and the GI50 (MDA-MB-435) was 16.1 µM. It also gave a TGI (MDA-MB-435) of 42.8 µM, a GI50 (NCI/ADR-RES ovarian) of 14.8 µM and a TGI (NCI/ADR-RES ovarian) of 50.9 µM. For the same compound, the GI50 (A498 renal) was 18.4 µM, the TGI (A498 renal) was 50.1 µM and the GI50 (NCI-H226 lung) was 12.2 µM. It also gave a TGI (NCI-H226 lung) of 30.1 µM, a GI50 (SK-MEL-28 melanoma) of 12.3 µM and a TGI (SK-MEL-28 melanoma) of 28 µM. For the same compound, the GI50 (UACC-62 melanoma) was 10.3 µM, the TGI (UACC-62 melanoma) was 29.7 µM and the GI50 (MDA-MB-468 breast) was 0.778 µM. The TGI (MDA-MB-468 breast) was 7.33 µM, the GI50 (RXF 393 renal) was 13.3 µM and the TGI (RXF 393 renal) was 31.6 µM. The GI50 (OVCAR-5 ovarian) was 18.1 µM, the TGI (OVCAR-5 ovarian) was 50.2 µM and the GI50 (SNB-19 CNS) was 16.3 µM. For the same compound, the TGI (SNB-19 CNS) was 56.6 µM, the GI50 (SN12C renal) was 14.6 µM and the TGI (SN12C renal) was 34.8 µM. For the same compound, the GI50 (KM12 colon) was 14.3 µM, the TGI (KM12 colon) was 65.6 µM and the GI50 (SR leukemia) was 10.3 µM. For the same compound, the TGI (SR leukemia) was greater than 100 µM, the GI50 (HCT-15 colon) was 11 µM and the TGI (HCT-15 colon) was 33.8 µM. It also gave a TGI (SK-MEL-2 melanoma) of 71.4 µM, a GI50 (BT-549 breast) of 10.5 µM and a TGI (BT-549 breast) of 34.8 µM. For the same compound, the GI50 (LOX IMVI melanoma) was 13.7 µM.
